Measured values from PubChem BioAssay AID248 (DTP/NCI, 2004).
Toxic doses and inconclusive results are not listed. Rule as the data show it: active = T/C of 150% or more; inactive = T/C below 125%.

Test system: L1210 leukemia ip in BDF1 mice, survival T/C
Assay: NCI In Vivo Anticancer Drug Screen. Data for tumor model L1210 Leukemia (intraperitoneal) in B6D2F1 (BDF1) mice
Conditions: endpoint: mean survival time, higher = longer survival
Outline: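 Survival endpoint. Drug-treated group vs vehicle group, expressed as T divided by C. Tumor passaged by transplantation.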

[1] = dose: 100.0 mg/kg/injection, schedule: Q04DX003 (ip), vehicle: saline
[2] = dose: 200.0 mg/kg/injection, schedule: Q04DX003 (ip), vehicle: saline
[3] = dose: 100.0 mg/kg/injection, schedule: Q04DX003 (ip), vehicle: saline with Tween-80
[4] = dose: 200.0 mg/kg/injection, schedule: Q04DX003 (ip), vehicle: saline with Tween-80
[5] = dose: 400.0 mg/kg/injection, schedule: Q04DX003 (ip), vehicle: saline with Tween-80
[6] = dose: 100.0 mg/kg/injection, schedule: Q01DX009 (ip), vehicle: Klucel (hydroxypropylcellulose) (HPC)
[7] = dose: 100.0 mg/kg/injection, schedule: Q04DX003 (ip), vehicle: Klucel (hydroxypropylcellulose) (HPC)
[8] = dose: 200.0 mg/kg/injection, schedule: Q01DX009 (ip), vehicle: Klucel (hydroxypropylcellulose) (HPC)
[9] = dose: 200.0 mg/kg/injection, schedule: Q04DX003 (ip), vehicle: Klucel (hydroxypropylcellulose) (HPC)
[10] = dose: 400.0 mg/kg/injection, schedule: Q01DX009 (ip), vehicle: Klucel (hydroxypropylcellulose) (HPC)
[11] = dose: 400.0 mg/kg/injection, schedule: Q04DX003 (ip), vehicle: Klucel (hydroxypropylcellulose) (HPC)
[12] = dose: 100.0 mg/kg/injection, schedule: Q01DX001 (ip), vehicle: carboxymethylcellulose (CMC)
[13] = dose: 100.0 mg/kg/injection, schedule: Q01DX001 (ip), vehicle: saline
[14] = dose: 200.0 mg/kg/injection, schedule: Q01DX001 (ip), vehicle: carboxymethylcellulose (CMC)
[15] = dose: 200.0 mg/kg/injection, schedule: Q01DX001 (ip), vehicle: saline
[16] = dose: 400.0 mg/kg/injection, schedule: Q01DX001 (ip), vehicle: carboxymethylcellulose (CMC)
[17] = dose: 400.0 mg/kg/injection, schedule: Q01DX001 (ip), vehicle: saline
[18] = dose: 100.0 mg/kg/injection, schedule: Q01DX001 (ip), vehicle: Klucel (hydroxypropylcellulose) (HPC)
[19] = dose: 200.0 mg/kg/injection, schedule: Q01DX001 (ip), vehicle: Klucel (hydroxypropylcellulose) (HPC)
[20] = dose: 100.0 mg/kg/injection, schedule: Q01DX009 (ip), vehicle: saline with Tween-80

Measured: T/C

CC(=O)OC1CCC2(C)C(CCC3C2CCC2(C)C3C(c3ccccc3Cl)C3C=NN(c4ccccc4)C32C(=O)c2ccccc2)C1 (configuration not stated)
inactive: dose: 25.0 mg/kg/injection, schedule: Q04DX002 (ip), vehicle: Klucel (hydroxypropylcellulose) (HPC) 97 % of control | dose: 50.0 mg/kg/injection, schedule: Q04DX002 (ip), vehicle: Klucel (hydroxypropylcellulose) (HPC) 94 % of control | dose: 100.0 mg/kg/injection, schedule: Q04DX002 (ip), vehicle: Klucel (hydroxypropylcellulose) (HPC) 94 % of control

Cc1ccc(NN)c(Br)c1
inactive: [1] 104 % of control | [2] 106 % of control | dose: 400.0 mg/kg/injection, schedule: Q04DX003 (ip), vehicle: saline 101 % of control

Clc1nc2ccccc2nc1Cl
inactive: dose: 12.5 mg/kg/injection, schedule: Q04DX003 (sc), vehicle: olive oil, sesame oil, peanut oil 98 % of control | dose: 25.0 mg/kg/injection, schedule: Q04DX003 (sc), vehicle: olive oil, sesame oil, peanut oil 109 % of control

CCOC(=O)c1cnc(SC)nc1NCc1ccccc1C
inactive: [3] 94 % of control | [4] 94 % of control | [5] 92 % of control

CCc1ccccc1OS(=O)(=O)c1ccc([N+](=O)[O-])cc1
inactive: [6] 109 % of control | [7] 92 % of control | [8] 102 % of control | [9] 100 % of control | [10] 102 % of control | [11] 100 % of control

N#Cc1c(F)c(F)c(C(F)(F)F)c(F)c1F
inactive: dose: 6.0 mg/kg/injection, schedule: Q01DX009 (ip), vehicle: saline with Tween-80 103 % of control | dose: 12.0 mg/kg/injection, schedule: Q01DX009 (ip), vehicle: saline with Tween-80 104 % of control | dose: 25.0 mg/kg/injection, schedule: Q01DX009 (ip), vehicle: saline with Tween-80 93 % of control | dose: 50.0 mg/kg/injection, schedule: Q01DX009 (ip), vehicle: other 103 % of control

C=C1Sc2ccccc2N1C
inactive: dose: 6.25 mg/kg/injection, schedule: Q01DX015 (ip), vehicle: saline 97 % of control | dose: 12.5 mg/kg/injection, schedule: Q01DX015 (ip), vehicle: saline 97 % of control | dose: 25.0 mg/kg/injection, schedule: Q01DX015 (ip), vehicle: saline 95 % of control | dose: 50.0 mg/kg/injection, schedule: Q01DX015 (ip), vehicle: saline 91 % of control

CC[n+]1ccc(-c2ccc(S(=O)(=O)[O-])cc2)o1
inactive: dose: 50.0 mg/kg/injection, schedule: Q04DX003 (ip), vehicle: saline 108 % of control | [12] 96 % of control | [13] 105 % of control | [1] 93 % of control | [14] 96 % of control | [15] 105 % of control | [2] 105 % of control | [16] 100 % of control | [17] 105 % of control

O=C(Oc1ccc(Cl)cc1)c1ccccc1
inactive: [6] 95 % of control | [7] 103 % of control | [8] 101 % of control | [9] 105 % of control | [10] 101 % of control | [11] 92 % of control

O=c1c(N=Nc2ccc(Cl)cc2)c(O)n(-c2ccc(Br)cc2)c(=S)n1-c1ccccc1
inactive: dose: 50.0 mg/kg/injection, schedule: Q01DX001 (ip), vehicle: Klucel (hydroxypropylcellulose) (HPC) 97 % of control | [18] 101 % of control | [19] 97 % of control

Cc1nc2ccccc2s1
inactive: dose: 100.0 mg/kg/injection, schedule: Q04DX002 (ip), vehicle: saline 106 % of control | dose: 200.0 mg/kg/injection, schedule: Q04DX002 (ip), vehicle: saline 98 % of control | dose: 400.0 mg/kg/injection, schedule: Q04DX002 (ip), vehicle: saline 102 % of control

O=C(NCc1ccccc1)c1ccccc1
inactive: [7] 97 % of control | [9] 95 % of control | [11] 100 % of control

Cc1c2c(cc3c1CCC1(C)C3=CCC1C(C)CCC(C)C(C)C)CCCC2 (configuration not stated)
inactive: dose: 100.0 mg/kg/injection, schedule: Q01DX001 (ip), vehicle: saline with Tween-80 93 % of control | dose: 200.0 mg/kg/injection, schedule: Q01DX001 (ip), vehicle: saline with Tween-80 95 % of control | dose: 400.0 mg/kg/injection, schedule: Q01DX001 (ip), vehicle: saline with Tween-80 91 % of control

C[n+]1ccccc1
inactive: [13] 94 % of control | [15] 93 % of control | [17] 104 % of control

Cc1cc(C)cc(C(C)(C)C)c1
inactive: [3] 92 % of control | [4] 92 % of control | [5] 95 % of control

O=C(/N=N/C(=O)Oc1ccccc1)Oc1ccccc1
inactive: [13] 98 % of control | [15] 101 % of control | [17] 98 % of control

O=C1C(c2ccccc2)=C(N2CCCCC2)C(=O)C(c2ccccc2)=C1N1CCCCC1
inactive: [12] 90 % of control | [14] 90 % of control | [16] 94 % of control

Nc1nc(=S)c2ncn(C3OCC(O)C(O)C3O)c2[nH]1 (configuration not stated)
inactive: dose: 5.0 mg/kg/injection, schedule: Q01DX001 (ip), vehicle: saline 101 % of control | dose: 10.0 mg/kg/injection, schedule: Q01DX001 (ip), vehicle: saline 95 % of control | dose: 12.5 mg/kg/injection, schedule: Q01DX009 (ip), vehicle: saline 98 % of control | dose: 20.0 mg/kg/injection, schedule: Q01DX001 (ip), vehicle: saline 96 % of control | dose: 25.0 mg/kg/injection, schedule: Q01DX009 (ip), vehicle: saline 97 % of control | dose: 40.0 mg/kg/injection, schedule: Q01DX001 (ip), vehicle: saline 101 % of control | dose: 50.0 mg/kg/injection, schedule: Q01DX009 (ip), vehicle: saline 98 % of control | dose: 80.0 mg/kg/injection, schedule: Q01DX001 (ip), vehicle: saline 96 % of control | [13] 98 % of control | dose: 100.0 mg/kg/injection, schedule: Q01DX009 (ip), vehicle: saline 101 % of control | [15] 102 % of control | [17] 102 % of control

O=C(NC/C(Cl)=C/Cl)Oc1cccc2ccccc12
inactive: dose: 75.0 mg/kg/injection, schedule: Q01DX009 (ip), vehicle: Klucel (hydroxypropylcellulose) (HPC) 107 % of control | dose: 150.0 mg/kg/injection, schedule: Q01DX009 (ip), vehicle: Klucel (hydroxypropylcellulose) (HPC) 104 % of control | dose: 300.0 mg/kg/injection, schedule: Q01DX009 (ip), vehicle: Klucel (hydroxypropylcellulose) (HPC) 98 % of control

CCOC(=O)c1cnc2onc(C)c2c1Nc1cccc(C(F)(F)F)c1
inactive: [7] 90 % of control | [9] 97 % of control | [11] 101 % of control

CCCCNC(C)(C)C(SC(C)=O)c1ccc(Cl)cc1 (configuration not stated)
inactive: [20] 89 % of control

C/C=C\c1ccc(OCCOC(=O)Nc2c(C)cccc2C)c(OC)c1
inactive: [20] 92 % of control | dose: 200.0 mg/kg/injection, schedule: Q01DX009 (ip), vehicle: saline with Tween-80 89 % of control | dose: 400.0 mg/kg/injection, schedule: Q01DX009 (ip), vehicle: saline with Tween-80 87 % of control

CC(=O)c1ccc(Br)c2ccccc12
inactive: dose: 50.0 mg/kg/injection, schedule: Q04DX003 (ip), vehicle: saline with Tween-80 95 % of control | [3] 100 % of control | [4] 97 % of control | [5] 94 % of control

COc1cc(NC(=O)c2ccc(C(=O)Nc3cc(OC)cc4cccnc34)cc2)c2ncccc2c1
inactive: [13] 94 % of control | [15] 100 % of control | [17] 103 % of control

Cc1cc(S(=O)(=O)F)ccc1NC(=O)NCc1ccc([N+](=O)[O-])cc1Cl
inactive: [7] 112 % of control | [9] 101 % of control

CS(=O)(=O)Nc1ccc(NS(C)(=O)=O)c(SCc2ccccc2)c1
inactive: [18] 95 % of control | [7] 96 % of control | [19] 98 % of control | [9] 89 % of control | dose: 400.0 mg/kg/injection, schedule: Q01DX001 (ip), vehicle: Klucel (hydroxypropylcellulose) (HPC) 95 % of control | [11] 102 % of control

O=C(COc1ccc(Cl)cc1)Nc1ccc(F)cc1
inactive: [6] 98 % of control | [7] 95 % of control | [8] 90 % of control | [11] 95 % of control

CCCCN=C(NCCCC)OCCCC
inactive: dose: 11.1 mg/kg/injection, schedule: Q01DX Z (ip), vehicle: saline 104 % of control | dose: 16.6 mg/kg/injection, schedule: Q01DX Z (ip), vehicle: saline 100 % of control
